# Assay results as given in publication PMC12799219, “In vitro and in vivo studies on the activity and selectivity of butoconazole in experimental infection by Trypanosoma cruzi” (Memórias do Instituto Oswaldo Cruz, 2026).
# Assay: In vivo pharmacokinetic study, plasma levels by LC-MS/MS
# Parameters: species or system BALB/c mice
# Settings: mice, single dose 100 mg/kg i.p.
# Experimental: In vivo pharmacokinetic study - Adult male specific-pathogen-free BALB/c mice, provided by the Faculty of Veterinary Sciences, National University of La Plata (FCV-UNLP) were used. Animals were housed in cages with four animals per cage, under a 12 h light/dark cycle and controlled temperature, provided with water and food ad libitum and environmental enrichment. A minimum period of six days was given after transport for physiological acclimatisation before any procedure. Five groups of mice (n = 3 per group) were used, one per sampling time. […] Plasma was obtained immediately after blood collection by centrifugation for 10 min at 4,000 rpm and conserved at -17 °C until quantification. […]
# The equipment used was a Waters Alliance 2695 HPLC coupled to a tandem quadrupole mass spectrometer, Premier XE (Waters Corp.), equipped with an electrospray ionisation source operating in positive mode (ESI+). […] The mass spectrometer was configured to operate in multiple reaction monitoring (MRM) mode, employing two mass transitions for the compound, one for quantification (411.0 > 164.9) and the other for confirmation (413.2 > 164.9).
# Unbound drug concentrations in plasma were estimated by multiplying the analytically determined total drug concentrations by the unbound fraction predicted by Deep-PK.[27]
smiles,measurement,value
"Clc1ccc(CCC(Cn2ccnc2)Sc2c(Cl)cccc2Cl)cc1 (centres unmarked) [BTZ, butoconazole]",mean peak total plasma concentration,25.9 µM
same,time of mean peak plasma concentration,2 h
